Measured values taken from PubChem BioAssay (NCI).
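A five-concentration, 48-hour dose response in 96-well plates underlies each endpoint, interpolated linearly between surrounding concentrations. TGI: total growth inhibition.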

Test system: P388/ADR leukemia
Assay: NCI tumour cell line growth inhibition, 48 h

CC1[C@@H]2CC=C3[C@H]4CCC5Cc6nc7c(nc6C[C@@]5(C)C4CC(=O)[C@]32CO[C@]12OC(C)(C)CC2O)CC1CC[C@@H]2C3=C[C@H]4O[C@@]5(O[C@@](C)(CO)C[C@@H]5O)C(C)[C@@]4(O)[C@]3(C)[C@@H](O)CC2[C@]1(C)C7 (stereo partly specified)
TGI: 10.9 nM
